Laboratory results published in publication PMC10731658 (Chemical Research in Toxicology, 2023).

Legend:
HepG2 cells [1] = assay: Intracellular RONS detection with DHE fluorescent probe; format: cell-based, human; settings: IC50 concentration
Experimental: Two different fluorescent dyes, i.e., 2,7-dichlorodihydrofluorescein diacetate (DCFH-DA, Cayman Chemicals Company, Ann Arbor, MI) and dihydroethidium (DHE, Sigma-Aldrich, St. Louis, MO) were utilized for the determination of intracellular levels of RONS after 1, 4, and 24 h of incubation with tested oxime reactivators or TBHP (positive control). Cells incubated with oxime-free DMEM represented untreated control. After the incubation, the experimental medium was removed and replaced with a solution of DCFH-DA or DHE at concentrations of 20 and 5 μmol/L, respectively. The cells were subsequently incubated at 37 °C in a CO2 incubator for 45 min. Afterward, the fluorescence intensity of each well was measured using a Spark multimode microplate reader at an excitation wavelength of 485 nm for DCFH-DA or 528 nm for the DHE probe and an emission wavelength of 535 or 590 nm, respectively. Each experiment was carried out in triplicate and repeated three independent times.
The toxicological indices IC50 were calculated from control-subtracted triplicates using nonlinear regression (four parameters) using GraphPad Prism 9 software version 9.3.0 (GraphPad Software Inc., San Diego, CA). One-way analysis of variance (ANOVA) followed by Dunnetʼs multiple comparison test was used for RONS, MDA, NP-SH, and NP-SS-NP statistical analysis by GraphPad Prism 9 software, version 9.3.0. Data are expressed as means ± standard deviation (SD) of three independent measurements (n = 3). Significant differences between oxime-treated and untreated control groups (p ≤ 0.05) were marked by an asterisk (*).

HepG2 cells [2] = assay: Total intracellular MDA by LC-MS/MS; format: cell-based, human; settings: IC50 concentration
HepG2 cells [3] = assay: Flow cytometric detection of cell death (Annexin V & Dead Cell Assay); format: cell-based, human; settings: IC50 concentration
Excerpt: 2. Flow cytometric detection of cell death
The microcapillary flow cytometry (Muse™ Cell Analyzer, Luminex, Austin, TX) was used to determine cell death.
This method is based on detecting externalization of phosphatidylserine on the surface of cells undergoing apoptosis.
The technique allows quantitative analysis of non-apoptotic, early apoptotic, late apoptotic, and necrotic cells. The reagent mixture also contains the membrane non-permeable dye 7-aminoactinomycin D. This component distinguishes necrotic and late apoptotic cells from the live and early apoptotic cells. The measurement of cell death was carried out according to manufacturer instructions after 1, 4, and 24 h incubation with tested oxime reactivators and with oxime-free medium as an untreated control. During the first day of the experiment, cells were seeded into a 24-well plate (TPP) with a density of […]. After the incubation, cells from each well were collected into the polystyrene tube (TPP) and centrifuged for 5 min at 1000 × g at room temperature. The supernatant was discarded. The cell suspensions […]
were prepared in fresh medium DMEM. Afterward 100 μL of cell suspension were mixed with the 100 μL of Muse™ Annexin V & Dead Cell Assay reagent, and the samples were incubated for 20 min at room temperature in the dark.
Per measurement, 5000 cells were analyzed. Each experiment was performed in triplicates and repeated three independent times. The concentration of K048, K074, K075, and K203 oximes and TBHP (positive control) used in […]
After 1 h of incubation (Figure S-1.) with tested oxime reactivators and TBHP as the positive control, the percentage […]
A significant change in the percentage of
The amount of early apoptotic cells
. On the other hand, the percentage of late apoptotic cells was […]
control cells. The count of late apoptotic cells enlarged by 7.74, 4.71 , 4.17, 4.13, and 3.20 %, respectively. The statistical differences were also found in the percentage of necrotic cells in this time interval. The highest increment […]
K048, K074, K075, and K203 groups when compared with control.
K075, and K203 treated groups, respectively, when compared with control. Finally, the percentage of necrotic cells […]
Fig. S-1 The percentage of intact (white column), early (light grey column), late apoptotic (dark grey column), and necrotic HepG2 cells (black column) determined using microcapillary flow cytometry after 1 h, 4 h and 24 h treatment with oxime acetylcholinesterase reactivators or TBHP (positive control). Control represents the cells incubated with an oxime-free culture medium. One-way analysis of variance (ANOVA) followed by Dunnetʼs multiple comparison test was used for statistical analysis by GraphPad Prism 9 software version 9.3.0. Data are expressed as means ± standard deviation (SD) of three independent measurements (n = 3). Significant differences between oxime-treated and untreated control groups (p ≤ 0.05) and marked by asterisk (*).
3. Stability of oximes in DMEM medium at 37 °C over 24 hours
The stability of oximes K048, K074, K075, and K203 in DMEM medium, with concentrations corresponding to their […]
UV, following the chromatographic conditions described by Vanova et al. (2021)13. The results over the tested time […]
Fig. S-2 Data are expressed in percentage as means ± standard deviation (SD) of three independent measurements […]

AChE = settings: in rat blood; read-out: IC50 (concentration required to inhibit AChE activity by 50%); cited from earlier work
HepG2 cells [4] = settings: combined exposure with TBHP (IC50 concentration); oximes about 10-fold below IC50; cited from earlier work
[5] = reference not given; cited from earlier work
[6] = Colorimetric MTT cell viability assay, 24 h; settings: human, HepG2 cells, IC50 (cytotoxicity, MTT assay), 24 h incubation
HepG2 cells [7] = assay: Colorimetric MTT cell viability assay, 24 h; settings: read-out: IC50 (cytotoxicity, MTT assay), 24 h incubation

Row | SMILES | increase of RONS (DHE probe) vs negative control (HepG2 cells [1]; 4 h incubation) [%] | increase of MDA levels vs untreated control (HepG2 cells [2]; 4 h incubation) [%] | increase of MDA levels vs untreated control (HepG2 cells [2]; 24 h exposure) [%] | decrease in percentage of intact (live) cells vs control (HepG2 cells [3]; 1 h) [%] | increase in early apoptotic cells vs control (HepG2 cells [3]; 1 h) | increase in late apoptotic cells vs control (HepG2 cells [3]; 1 h) [%] | decrease in percentage of live cells vs control (HepG2 cells [3]; 4 h) [%] | increase in early apoptotic cells vs control (HepG2 cells [3]; 4 h) [%] | increase in late apoptotic cells vs control (HepG2 cells [3]; 4 h) [%] | increase in necrotic cell population vs control (HepG2 cells [3]; 4 h) [%] | decrease in percentage of intact cells vs control (HepG2 cells [3]; 24 h) [%] | increase in early apoptotic cells vs control (HepG2 cells [3]; 24 h) [%] | increase in late apoptotic cells vs control (HepG2 cells [3]; 24 h) [%] | IC50 (AChE) [mM] | increased production of ROS (HepG2 cells [4]) [%] | log P [5] | IC50 at 24 h [6] [mM] | IC50 (HepG2 cells [7]) [mM] | increase of RONS (DHE probe) vs negative control (HepG2 cells [1]; 24 h incubation) [%] | increase in necrotic cells vs control (HepG2 cells [3]; 1 h) [%]
1 | NC(=O)c1cc[n+](CCCC[n+]2ccc(C=NO)cc2)cc1.[Br-].[Br-] [K048, 4-carbamoyl-1-(4-(4-((hydroxyimino)methyl)pyridin-1-ium-1-yl)butyl)pyridin-1-ium dibromide] | 25.8 | 17.2 | 35.4 | ~9.71 | about 5.05% | 4.17 | 11.2 | 5.72 | 4.35 | 1.17 | 45.6 | 18.2 | 26.2 | ~0.643 | 25 | −2.61 | ~30 | 30.6 |  | 
2 | O/N=C/c1cc[n+](CCCC[n+]2ccc(/C=N/O)cc2)cc1 [K074, 1,1′-(butane-1,4-diyl)bis(4((hydroxyimino)methyl)pyridine-1-ium) dibromide] | 33.4 | 23.6 | 36.1 | ~8.85 | ~2.45% | 4.71 | 8.3 | 4.17 | 3.47 | 0.67 | 45.5 | 14.1 | 31.3 | ~0.066 | 16 | −1.74 | ~27 | 27.2 | 42.8 | 1.69
